Results on four compounds are retold here after patent US12139744B2, “Stabilisation of biological samples” (QIAGEN GmbH, priority 2013, dated 2024).

One data set relates to CD3 on lymphocytes. As to the kind of experiment: aCD3 FACS analysis of cell and cell surface epitope integrity. It counts as cell-based, human. Particulars: EDTA blood, test solution 5% v/v DMPA, RT 0 h, 24 h, 72 h. How it is done:
FIG. 5: Fluorescence activated cell sorting (aCD3 FACS) analysis of sample aliquots from blood collected from one donor into EDTA tubes. Blood aliquots were subjected to FACS using PE-conjugated anti-CD3 antibody from samples that were not incubated after blood collection (0 h) and samples after one and three days of incubation at RT (24 h, 72 h). The number of fluorescence-labelled cells was counted and the intensity of the fluorescence signal per event was quantified. Intensity (x-axis) and number of fluorescence signals (y-axis) are shown as histograms. Thresholds were defined to differentiate unspecific weak fluorescence signals (−) from stronger specific fluorescence signals caused by specifically bound anti-CD3 antibody to cells (+). […]
Cell and cell surface epitope integrity was analysed by fluorescence activated cell sorting (FACS) using fluorescence conjugated anti-CD3 antibody
In addition, cell and cell surface epitope integrity was analysed in the stabilized samples by fluorescence activated cell sorting (FACS). In detail, the presence and accessibility of cell surface proteins was analysed by binding of fluorescence conjugated antibody (PE-labelled anti-CD3) directed against cellular epitope CD3 that is specific for lymphocytes, while other white blood cell subtypes (monocytes, neutrophilic granulocytes) are CD3 negative.

For the next data set, the system named is blood samples. The data set is described as follows: Inspection of plasma for hemolysis. It counts as cell-based, human. The conditions noted are these: Example 4: 2.5% and 5% DMPA with caspase inhibitor. The text has this: The focus of the analysis was the stabilization of the extracellular nucleic acid population as determined by analyzing the increase of 18S rDNA. Shown is the increase of DNA relative to time point 0 with 2.5%, 5% and 7.5% N,N dimethylpropanamide (DMPA) or 5% DMAA with caspase inhibitor (fold change) using different amplicon lengths of 18SrRNA gene. Bars indicate the mean of the triplicate samples per condition and test time point. […] Thus, a stabilization of the extracellular nucleic acid population was achieved. Furthermore, the obtained plasma was inspected in order to analyse whether hemolysis occurred.

The subject of data set [1] is FOS, IL1B, IL8 and TP53 transcripts. The data set is described as follows: Transcript level stabilisation in stored blood, real time RT-PCR. It counts as cell-based, human. The conditions noted are these: blood incubated at RT for 0, 24 and 72 hours; DMPA 5% v/v final in EDTA blood, 5xMOPS pH5.5. The text has this: A test system and study setup was established that allows the identification of reagent compositions that have gene transcript stabilisation capabilities, as indicated by constant levels of transcripts from selected genes (c-fos, IL-1beta, IL-8, p53). These transcripts were identified in prior studies as very unstable transcripts during storage, which are induced or down regulated (gains and losses of transcripts) within minutes after blood collection and were therefore chosen as “worst case” markers for screening purposes.
Blood was collected from multiple donors into replicate EDTA blood tubes (BD, [−] control of sample stabilisation) and PAXgene Blood RNA Tubes (PreAnalytiX) serving as [+] control of sample stabilisation. PAXgene Blood RNA tubes contain a composition (see also background of the invention) that lysis cells and thereby “freeze” the gene transcription profile. PAXgene Blood RNA tubes are for stabilizing blood for gene expression analysis. One aim was to find stabilization method that not based on cell lysis but achieves the same or similar performance as the PAXgene Blood RNA tubes in transcript level stabilization. […]
Transcript levels of all RNA samples were analysed by real time RT-PCR using monoplex assays of FOS, IL1B, IL8 and TP53, normalized to the amount of template input into the reaction. […]

The subject of a further data set is 18S ribosomal DNA. As to the kind of experiment: 18S rDNA increase in plasma of stored blood (qPCR, 66 bp and 500 bp amplicons). The data set is classed as cell-based, human. Particulars: for Released DNA (18S rDNA) after storage: 3 and 6 days RT, vs unstabilized EDTA blood. Here is the method: Blood obtained from donors was collected into 10 ml K2 EDTA tubes (BD). 4.5 ml of the respectively collected blood was mixed with 0.9 ml of different stabilization solutions (see below examples on the details of the tested stabilization solutions).
All stabilized blood samples were set up in triplicates per condition and test time point. At time point 0 (reference), immediately after mixing the stabilization solution and blood, plasma was generated and the circulating extracellular DNA was extracted. The residual stabilized blood sample was stored for three days and six days at room temperature.
Plasma was generated from the stabilized and unstabilized (EDTA) blood samples by inverting the blood containing tubes for four times. Then, the tubes were centrifuged for 10 minutes at 1900×g at 4° C. 2.5 ml of the plasma fraction was transferred into a fresh 15 ml falcon tube and centrifuged for 10 minutes at 16.000×g at 4° C. 2 ml of the respectively cleared plasma was used for extracellular nucleic acid isolation using the QIAamp circulating nucleic acid kit (QIAGEN) according to the manufacturer's instructions.
The isolated extracellular DNA was analyzed using two different qPCR assays, targeting different fragment lengths of the 18S ribosomal DNA:
Cycle threshholds of the individual samples were translated into amount of gDNA in the eluate, according to a gDNA standard curve. The gDNA amount of the storage time points was compared to the time zero gDNA level from the same donor and is shown as fold increase in the figures. Especially the increase of the 500 bp fragment in the plasma fraction of the blood sample after storage is an indication for a lysis/destruction of white blood cells. Thus, the lower the amount of released 500 bp DNA, the better the performance of the stabilization method.

The test system of another data set is PKC. Particulars: cited from earlier work.
The target of a further data set is T1, calpain II (Homo sapiens, UniProt P17655).
T1 sequence (P17655 1-700): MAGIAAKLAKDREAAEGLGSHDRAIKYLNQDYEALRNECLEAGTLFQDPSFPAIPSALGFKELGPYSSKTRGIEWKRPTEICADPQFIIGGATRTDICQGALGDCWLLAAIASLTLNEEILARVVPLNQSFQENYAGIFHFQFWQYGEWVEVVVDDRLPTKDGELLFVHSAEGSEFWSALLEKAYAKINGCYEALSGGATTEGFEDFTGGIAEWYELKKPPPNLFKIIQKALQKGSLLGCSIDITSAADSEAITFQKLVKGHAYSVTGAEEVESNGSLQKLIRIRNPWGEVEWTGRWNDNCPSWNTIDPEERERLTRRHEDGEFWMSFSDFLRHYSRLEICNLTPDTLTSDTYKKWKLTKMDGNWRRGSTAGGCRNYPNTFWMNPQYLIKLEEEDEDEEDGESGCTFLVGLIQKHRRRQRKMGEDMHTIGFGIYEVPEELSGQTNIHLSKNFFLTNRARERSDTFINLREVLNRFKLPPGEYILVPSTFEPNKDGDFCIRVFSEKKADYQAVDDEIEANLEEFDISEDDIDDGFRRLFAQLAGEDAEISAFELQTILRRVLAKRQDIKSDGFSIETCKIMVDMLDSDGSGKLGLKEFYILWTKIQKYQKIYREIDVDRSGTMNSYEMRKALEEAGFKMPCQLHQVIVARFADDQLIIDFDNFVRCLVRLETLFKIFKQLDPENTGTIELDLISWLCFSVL
T1 sequence (P04632 1-268 partner): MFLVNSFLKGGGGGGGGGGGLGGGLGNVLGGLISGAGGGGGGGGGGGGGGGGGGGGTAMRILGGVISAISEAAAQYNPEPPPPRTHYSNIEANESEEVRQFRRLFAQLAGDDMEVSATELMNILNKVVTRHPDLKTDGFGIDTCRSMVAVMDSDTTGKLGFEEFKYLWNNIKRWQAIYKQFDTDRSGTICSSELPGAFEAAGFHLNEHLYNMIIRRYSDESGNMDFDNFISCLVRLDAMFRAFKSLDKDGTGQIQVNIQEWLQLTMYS
The conditions noted are these: irreversible inhibitor; cited from earlier work.

For a further data set, the system named is cells. Particulars: cited from earlier work.

* marks the point of attachment. Cbz = O=C(OCc1ccccc1)*; CH2F = FC*

Turning to `CCC(=O)N(C)C` [DMPA, N,N-dimethylpropanamide], the “Detection of lymphocytes by PE-conjugated anti-CD3 FACS” value in the data set on CD3 on lymphocytes is “detectable for up to three days”. Further, the “Hemolysis in plasma obtained from stabilized blood” value in the data set on blood samples is on record as “did not show signs of hemolysis”. In addition, the “Relative transcript levels of FOS, IL1B, IL8 and TP53 (CT values) over storage” value in data set [1] was “stabilised expression levels”. The “Increase in 18S rDNA relative to time point 0” value was “significantly reduced increase in 18S rDNA” with 18S ribosomal DNA (Example 2: DMPA […], 2% or 2.5% without caspase inhibitor, 7.2 mg K2 EDTA/ml, RT up to 6 days, vs EDTA blood) and “significantly reduced increase in 18S rDNA” in the data set with 18S ribosomal DNA (Example 5: DMPA in different concentrations with 1 μM caspase inhibitor, 7.2 mg K2 EDTA/ml). Also, the “Released DNA (18S rDNA) after storage” value in the data set with 18S ribosomal DNA (Example 3: 2.5%, 5% or 7.5% (v/v) with 1 μM Quinoline-Val-Asp-CH2-OPH and K2 EDTA) is reported as “significantly lower amounts of released DNA”; in the data set with 18S ribosomal DNA (Example 4: 2.5%, 5% or 7.5% DMPA with 1 μM caspase inhibitor, 7.2 mg K2 EDTA/ml), “significantly lower amounts of released DNA”.

`O=c1c(O)c(-c2ccc(O)c(O)c2)oc2cc(O)cc(O)c12` [Quercetin]: the “IC50 PKC” value in the data set with PKC is 15 μg/ml. It strongly abrogated PI3K and Src kinases, mildly.

“Cbz-Leu-Leu-Tyr-CH2F [Calpain Inhibitor IV]”: at calpain II, the “k2 calpain II” value is on record as “= 28,900 M-1s-1). Also acts as an inhibitor of cathepsin L (k2 =”.

Consider Cbz-Val-Ala-Asp-CH2F, for which the Cytotoxicity entry with cells was “no added cytotoxic effects”.
